# Experimental data as given in patent US20160235778A1, “COMPOSITIONS CONTAINING PUFA, URIDINE AND CHOLINE AND METHODS OF USE THEREOF” (MASSACHUSETTS INSTITUTE OF TECHNOLOGY, priority 2014, published 2016).
# Test system: PC-12 cells
# Test: 14C-choline incorporation into phospholipids in PC-12 cells
# Assay type: cell-based
# Protocol: PC-12 cells were maintained in Dulbecco's modified Eagle's medium (DMEM)+10% fetal bovine serum (FBS). For experiments, cells were grown in quintuplicate collagen-coated 35 millimeter (mm) dishes. Cells were incubated for 18 hours (hr) in serum-free DMEM containing 28 μM choline+/−5 micromolar (μM) of DHA, oleic acid, or palmitic acid. Cells were then labeled for 2.5 hr with 0.5 microcurie (μCi)/ml ^14C-choline in serum-free DMEM containing 10-micromolar (μM) choline.
# Cells were homogenized in 100 volumes of ice-cold deionized water using a tissue degrader (Polytron PT 10-35, Kinematica AG, Switzerland); 1 ml of aliquots were then mixed with 3 ml of chloroform+methanol mixture (2:1 v/v) and vortexed vigorously for 30 seconds. After cooling for 1 h on ice, the mixture was mixed sequentially with 3 ml of chloroform+methanol mixture (2:1 v/v) and 1 ml of ice-cold deionized water. […] Total phosphorus was determined by comparison with standard curves by using KH2PO4 run with each assay. […] Absorbance was measured spectrophotometrically at 820 nm. Phospholipid mass was determined by multiplying the phosphorus content by 25.
# To further characterize the stimulation of phospholipid synthesis by omega-3 fatty acids, PC-12 cells were pre-treated with different doses of DHA and exposed to labeled choline as described in Example 1, then incorporation of ^14C-label into phospholipids was measured. […]
structure (smiles),measurement,setting,value
"CCC=CCC=CCC=CCC=CCC=CCC=CCCC(=O)O [DHA, 4,7,10,13,16,19-docosahexaenoic acid]",Phosphatidylcholine (PC) synthesis (incorporation of 14C label into PC),"18 h pre-incubation with 5 μM fatty acid, FIG. 1",significantly increased
same,synthesis of phospholipids (incorporation of 14C-label),"different doses of DHA, dose-dependent, FIG. 2",increased synthesis of phospholipids
